Reference: ChEMBL document CHEMBL4308841, “Synthesis, in vitro antiproliferative activity, and kinase inhibitory effects of pyrazole-containing diarylureas and diarylamides” (Eur J Med Chem, 2018)

Columns and labels:
[1] = test system: NCI-H322M; assay: Growth inhibition of human NCI-H322M cells assessed as cell growth at 100 uM incubated for 48 hrs by sulforhodamine B assay relative to control; assay type: functional; conditions: read-out: Activity
[2] = test system: NCI-H460; assay: Growth inhibition of human NCI-H460 cells assessed as cell growth at 0.01 uM incubated for 48 hrs by sulforhodamine B assay relative to control; assay type: functional; conditions: NCI-H460, 48 h, read-out: Activity
[3] = test system: SF-295; assay: Growth inhibition of human SF295 cells assessed as cell growth at 100 uM incubated for 48 hrs by sulforhodamine B assay relative to control; assay type: functional; conditions: SF-295, 48 h, read-out: Activity
[4] = test system: NCI-H460; assay: Growth inhibition of human NCI-H460 cells assessed as cell growth at 0.1 uM incubated for 48 hrs by sulforhodamine B assay relative to control; assay type: functional; conditions: NCI-H460, 48 h, read-out: Activity
[5] = test system: NCI-H522; assay: Growth inhibition of human NCI-H522 cells assessed as cell growth at 1 uM incubated for 48 hrs by sulforhodamine B assay relative to control; assay type: functional; conditions: NCI-H522, 48 h, read-out: Activity
[6] = test system: A498; assay: Growth inhibition of human A498 cells incubated for 48 hrs by sulforhodamine B assay; assay type: functional, cell-based; conditions: A498, 48 h
[7] = test system: OVCAR-4; assay: Growth inhibition of human OVCAR4 cells incubated for 48 hrs by sulforhodamine B assay; assay type: functional, cell-based; conditions: OVCAR-4, 48 h
[8] = test system: SK-MEL-28; assay: Growth inhibition of human SK-MEL-28 cells incubated for 48 hrs by sulforhodamine B assay; assay type: functional, cell-based; conditions: SK-MEL-28, 48 h
[9] = test system: HT-29; assay: Growth inhibition of human HT-29 cells assessed as cell growth at 0.01 uM incubated for 48 hrs by sulforhodamine B assay relative to control; assay type: functional; conditions: HT-29, 48 h, read-out: Activity
[10] = test system: Malme-3M; assay: Growth inhibition of human MALME-3M cells assessed as cell growth at 0.1 uM incubated for 48 hrs by sulforhodamine B assay relative to control; assay type: functional; conditions: read-out: Activity
[11] = test system: LOX IMVI; assay: Growth inhibition of human LOXIMVI cells assessed as cell growth at 100 uM incubated for 48 hrs by sulforhodamine B assay relative to control; assay type: functional; conditions: read-out: Activity
[12] = test system: MCF7; assay: Growth inhibition of human MCF7 cells incubated for 48 hrs by sulforhodamine B assay; assay type: functional, cell-based; conditions: MCF7, 48 h
[13] = test system: M14; assay: Growth inhibition of human M14 cells incubated for 48 hrs by sulforhodamine B assay; assay type: functional, cell-based; conditions: M14, 48 h
[14] = test system: SW-620; assay: Growth inhibition of human SW620 cells assessed as cell growth at 100 uM incubated for 48 hrs by sulforhodamine B assay relative to control; assay type: functional; conditions: SW-620, 48 h, read-out: Activity
[15] = test system: MDA-MB-231; assay: Growth inhibition of human MDA-MB-231 cells incubated for 48 hrs by sulforhodamine B assay; assay type: functional, cell-based; conditions: MDA-MB-231, 48 h
[16] = test system: T47D; assay: Growth inhibition of human T47D cells assessed as cell growth at 0.01 uM incubated for 48 hrs by sulforhodamine B assay relative to control; assay type: functional; conditions: read-out: Activity
[17] = test system: Hs-578T; assay: Growth inhibition of human Hs578T cells assessed as cell growth at 0.1 uM incubated for 48 hrs by sulforhodamine B assay relative to control; assay type: functional; conditions: read-out: Activity
[18] = test system: UACC-62; assay: Growth inhibition of human UACC62 cells assessed as cell growth at 1 uM incubated for 48 hrs by sulforhodamine B assay relative to control; assay type: functional; conditions: UACC-62, 48 h, read-out: Activity
[19] = test system: HCC 2998; assay: Growth inhibition of human HCC2998 cells assessed as cell growth at 0.01 uM incubated for 48 hrs by sulforhodamine B assay relative to control; assay type: functional; conditions: HCC 2998, 48 h, read-out: Activity
[20] = test system: OVCAR-8; assay: Growth inhibition of human OVCAR8 cells assessed as cell growth at 0.01 uM incubated for 48 hrs by sulforhodamine B assay relative to control; assay type: functional; conditions: OVCAR-8, 48 h, read-out: Activity
[21] = test system: Malme-3M; assay: Growth inhibition of human MALME-3M cells assessed as cell growth at 0.01 uM incubated for 48 hrs by sulforhodamine B assay relative to control; assay type: functional; conditions: read-out: Activity
[22] = test system: Hs-578T; assay: Growth inhibition of human Hs578T cells assessed as cell growth at 1 uM incubated for 48 hrs by sulforhodamine B assay relative to control; assay type: functional; conditions: read-out: Activity
[23] = test system: A498; assay: Growth inhibition of human A498 cells assessed as cell growth at 1 uM incubated for 48 hrs by sulforhodamine B assay relative to control; assay type: functional; conditions: A498, 48 h, read-out: Activity
[24] = test system: HOP-62; assay: Growth inhibition of human HOP62 cells incubated for 48 hrs by sulforhodamine B assay; assay type: functional, cell-based; conditions: HOP-62, 48 h
[25] = test system: SR; assay: Growth inhibition of human SR cells assessed as cell growth at 1 uM incubated for 48 hrs by sulforhodamine B assay relative to control; assay type: functional; conditions: read-out: Activity
[26] = test system: SNB-19; assay: Growth inhibition of human SNB19 cells incubated for 48 hrs by sulforhodamine B assay; assay type: functional, cell-based; conditions: SNB-19, 48 h
[27] = test system: HCT-15; assay: Growth inhibition of human HCT15 cells assessed as cell growth at 0.1 uM incubated for 48 hrs by sulforhodamine B assay relative to control; assay type: functional; conditions: HCT-15, 48 h, read-out: Activity
[28] = test system: BT-549; assay: Growth inhibition of human BT549 cells assessed as cell growth at 1 uM incubated for 48 hrs by sulforhodamine B assay relative to control; assay type: functional; conditions: BT-549, 48 h, read-out: Activity
[29] = read-out: LC50 (the source's name)
[30] = read-out: pLC50 (the source's name) (converted)

COc1cc(Cl)cc(-c2nn(-c3cccc(NC(=O)c4ccc(N5CCOCC5)c(C(F)(F)F)c4)c3)cc2-c2ccncc2)c1
growth at 100 µM [1]: 48%
growth at 0.01 µM [2]: 102%
growth at 100 µM [3]: -32%
growth at 0.1 µM [4]: 102%
growth at 1 µM [5]: 77%
GI50 ([6]; read-out: GI50): 1.52 µM
CC50 [6, 29]: > 100 µM
TGI ([6]; read-out: TGI): > 100 µM
GI50 ([6]; read-out: pGI50 (converted)): 16.2 µM
CC50 [6, 30]: > 100 µM
TGI ([6]; read-out: pTGI (converted)): > 100 µM
GI50 ([7]; read-out: GI50): 3.97 µM
CC50 [7, 29]: > 100 µM
TGI ([7]; read-out: TGI): > 100 µM
GI50 ([7]; read-out: pGI50 (converted)): 39.8 µM
CC50 [7, 30]: > 100 µM
TGI ([7]; read-out: pTGI (converted)): > 100 µM
GI50 ([8]; read-out: GI50): 1.48 µM
CC50 [8, 29]: > 100 µM
TGI ([8]; read-out: TGI): > 100 µM
GI50 ([8]; read-out: pGI50 (converted)): 14.8 µM
CC50 [8, 30]: > 100 µM
TGI ([8]; read-out: pTGI (converted)): > 100 µM
growth at 0.01 µM [9]: 100%
growth at 0.1 µM [10]: 85%
growth at 100 µM [11]: 25%
GI50 ([12]; read-out: GI50): 5.71 µM
LC50 ([12]; read-out: LC50): > 100 µM
TGI ([12]; read-out: TGI): > 100 µM
GI50 ([12]; read-out: pGI50 (converted)): 8.71 µM
LC50 ([12]; read-out: pLC50 (converted)): > 100 µM
TGI ([12]; read-out: pTGI (converted)): > 100 µM
GI50 ([13]; read-out: GI50): 7.93 µM
CC50 [13, 29]: > 100 µM
TGI ([13]; read-out: TGI): > 100 µM
GI50 ([13]; read-out: pGI50 (converted)): 7.94 µM
CC50 [13, 30]: > 100 µM
TGI ([13]; read-out: pTGI (converted)): > 100 µM
growth at 100 µM [14]: 22%
GI50 ([15]; read-out: GI50): 2.53 µM
CC50 [15, 29]: > 100 µM
TGI ([15]; read-out: TGI): 32.4 µM
GI50 ([15]; read-out: pGI50 (converted)): 2.82 µM
CC50 [15, 30]: > 100 µM
TGI ([15]; read-out: pTGI (converted)): 32.4 µM
growth at 0.01 µM [16]: 94%
growth at 0.1 µM [17]: 92%
growth at 1 µM [18]: 84%
growth at 0.01 µM [19]: 95%
growth at 0.01 µM [20]: 99%
growth at 0.01 µM [21]: 91%
growth at 1 µM [22]: 81%
growth at 1 µM [23]: 55%
GI50 ([24]; read-out: GI50): 6.78 µM
CC50 [24, 29]: > 100 µM
TGI ([24]; read-out: TGI): > 100 µM
GI50 ([24]; read-out: pGI50 (converted)): 63.1 µM
CC50 [24, 30]: > 100 µM
TGI ([24]; read-out: pTGI (converted)): > 100 µM
growth at 1 µM [25]: 52%
GI50 ([26]; read-out: GI50): > 100 µM
CC50 [26, 29]: > 100 µM
TGI ([26]; read-out: TGI): > 100 µM
GI50 ([26]; read-out: pGI50 (converted)): > 100 µM
CC50 [26, 30]: > 100 µM
TGI ([26]; read-out: pTGI (converted)): > 100 µM
growth at 0.1 µM [27]: 85%
growth at 1 µM [28]: 59%

O=C(Nc1cccc(-n2cc(-c3ccncc3)c(-c3cc(O)cc(Cl)c3)n2)c1)Nc1ccc(Cl)c(C(F)(F)F)c1
growth at 100 µM [1]: -81%
growth at 0.01 µM [2]: 101%
growth at 100 µM [3]: -80%
growth at 0.1 µM [4]: 102%
growth at 1 µM [5]: 51%
GI50 ([6]; read-out: GI50): 3.9 µM
CC50 [6, 29]: 44 µM
TGI ([6]; read-out: TGI): 15.5 µM
GI50 ([6]; read-out: pGI50 (converted)): 3.89 µM
CC50 [6, 30]: 44.7 µM
TGI ([6]; read-out: pTGI (converted)): 15.5 µM
GI50 ([7]; read-out: GI50): 3.21 µM
CC50 [7, 29]: > 100 µM
TGI ([7]; read-out: TGI): 92.3 µM
GI50 ([7]; read-out: pGI50 (converted)): 3.24 µM
CC50 [7, 30]: > 100 µM
TGI ([7]; read-out: pTGI (converted)): 9.33 µM
GI50 ([8]; read-out: GI50): 2.01 µM
CC50 [8, 29]: 25.5 µM
TGI ([8]; read-out: TGI): 62 µM
GI50 ([8]; read-out: pGI50 (converted)): 2 µM
CC50 [8, 30]: 26.3 µM
TGI ([8]; read-out: pTGI (converted)): 6.17 µM
growth at 0.01 µM [9]: 98%
growth at 0.1 µM [10]: 81%
growth at 100 µM [11]: -89%
GI50 ([12]; read-out: GI50): 2.53 µM
LC50 ([12]; read-out: LC50): > 100 µM
TGI ([12]; read-out: TGI): 85.4 µM
GI50 ([12]; read-out: pGI50 (converted)): 2.63 µM
LC50 ([12]; read-out: pLC50 (converted)): > 100 µM
TGI ([12]; read-out: pTGI (converted)): 8.51 µM
GI50 ([13]; read-out: GI50): 1.72 µM
CC50 [13, 29]: 55.8 µM
TGI ([13]; read-out: TGI): 38.8 µM
GI50 ([13]; read-out: pGI50 (converted)): 1.7 µM
CC50 [13, 30]: 8.71 µM
TGI ([13]; read-out: pTGI (converted)): 3.89 µM
growth at 100 µM [14]: -58%
GI50 ([15]; read-out: GI50): 1.55 µM
CC50 [15, 29]: > 100 µM
TGI ([15]; read-out: TGI): 50.6 µM
GI50 ([15]; read-out: pGI50 (converted)): 1.86 µM
CC50 [15, 30]: > 100 µM
TGI ([15]; read-out: pTGI (converted)): 5.89 µM
growth at 0.01 µM [16]: 91%
growth at 0.1 µM [17]: 94%
growth at 1 µM [18]: 99%
growth at 0.01 µM [19]: 97%
growth at 0.01 µM [20]: 102%
growth at 0.01 µM [21]: 93%
growth at 1 µM [22]: 87%
growth at 1 µM [23]: 92%
GI50 ([24]; read-out: GI50): 3.06 µM
CC50 [24, 29]: > 100 µM
TGI ([24]; read-out: TGI): 13.4 µM
GI50 ([24]; read-out: pGI50 (converted)): 3.09 µM
CC50 [24, 30]: > 100 µM
TGI ([24]; read-out: pTGI (converted)): 13.5 µM
growth at 1 µM [25]: 57%
GI50 ([26]; read-out: GI50): 3.7 µM
CC50 [26, 29]: > 100 µM
TGI ([26]; read-out: TGI): 15.9 µM
GI50 ([26]; read-out: pGI50 (converted)): 3.72 µM
CC50 [26, 30]: > 100 µM
TGI ([26]; read-out: pTGI (converted)): 16.6 µM
growth at 0.1 µM [27]: 88%
growth at 1 µM [28]: 90%
